The source of these data is patent US20210024545A1, “SUBSTITUTED DIAZAHETERO-BICYCLIC COMPOUNDS AND THEIR USE” (Bayer Aktiengesellschaft, priority 2016, published 2021).

One may read the IC50 as the point on the concentration scale where inhibition reaches its midpoint.

One assay has as its target human TASK-1 (Homo sapiens, UniProt O14649). Kind of assay: Inhibition of recombinant TASK-1 in stably transfected CHO cells, KCl-induced depolarization, voltage-sensitive dye (B-2). The format is cell-based. Further details: expressed in transfected cells; host or cells: stably transfected CHO cells. Particulars: depolarization induced by 40 mM potassium chloride, some mean values from multiple determinations. Here is the method:
(§1) B-2. Inhibition of Recombinant TASK-1 and TASK-3 In Vitro
(§2) The investigations on the inhibition of the recombinant TASK-1 and TASK-3 channels were conducted using stably transfected CHO cells. The compounds of the invention were tested here with administration of 40 mM of potassium chloride in the presence of a voltage-sensitive dye using the method described in detail in the following references [Whiteaker et al., Validation of FLIPR membrane potential dye for high-throughput screening of potassium channel modulators, J. Biomol. Screen. 6 (5), 305-312 (2001); Molecular Devices FLIPR Application Note: Measuring membrane potential using the FLIPR® membrane potential assay kit on Fluorometric Imaging Plate Reader (FLIPR®) systems, http://www.moleculardevices.com/reagents-supplies/assay-kits/ion-channels/flipr-membrane-potential-assay-kits]. The activity of the test substances was determined as their ability to inhibit a depolarization induced in the recombinant cells by 40 mM potassium chloride. The concentration which can block half of this depolarization is referred to as IC50).
(§3) Table 2 below lists the IC50 values from this assay determined for individual working examples of the invention (some as mean values from multiple independent individual determinations): […]

The next assay deals with human TASK-3 (Homo sapiens, UniProt Q9NPC2). Kind of assay: Inhibition of recombinant TASK-3 in stably transfected CHO cells, KCl-induced depolarization, voltage-sensitive dye (B-2). Format: cell-based. Further details: expressed in transfected cells; host or cells: stably transfected CHO cells. Particulars: depolarization induced by 40 mM potassium chloride, some mean values from multiple determinations. Here is the method: as §1, §2, §3
Sequence of human TASK-3 (Q9NPC2 whole entry): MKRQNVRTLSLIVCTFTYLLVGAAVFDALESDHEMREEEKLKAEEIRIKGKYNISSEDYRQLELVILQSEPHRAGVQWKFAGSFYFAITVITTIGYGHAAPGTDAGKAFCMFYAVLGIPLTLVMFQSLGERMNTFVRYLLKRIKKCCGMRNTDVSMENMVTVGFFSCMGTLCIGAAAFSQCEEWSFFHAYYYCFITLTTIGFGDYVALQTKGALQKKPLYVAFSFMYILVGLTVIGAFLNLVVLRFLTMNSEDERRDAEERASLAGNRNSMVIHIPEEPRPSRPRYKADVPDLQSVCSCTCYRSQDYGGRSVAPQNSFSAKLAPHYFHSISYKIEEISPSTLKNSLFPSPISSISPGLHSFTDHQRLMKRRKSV

Sequence of human TASK-1 (O14649 whole entry): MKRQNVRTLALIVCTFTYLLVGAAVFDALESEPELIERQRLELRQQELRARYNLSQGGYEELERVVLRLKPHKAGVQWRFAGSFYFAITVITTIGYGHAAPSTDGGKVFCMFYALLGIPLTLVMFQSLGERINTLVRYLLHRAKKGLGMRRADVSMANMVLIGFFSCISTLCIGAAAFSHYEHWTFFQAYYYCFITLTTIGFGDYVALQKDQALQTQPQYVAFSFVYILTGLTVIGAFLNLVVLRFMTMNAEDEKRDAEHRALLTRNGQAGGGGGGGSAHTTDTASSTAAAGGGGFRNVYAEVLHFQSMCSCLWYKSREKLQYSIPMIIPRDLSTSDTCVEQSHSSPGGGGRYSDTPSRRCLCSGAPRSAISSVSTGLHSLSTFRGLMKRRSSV

Take `COc1cccc(C(=O)N2CC3CCC2CN3Cc2c(-c3ccc(Br)cc3)nc3ccccn23)n1` (racemic) [Example 151, (5-{[2-(4-Bromophenyl)imidazo[1,2-a]pyridin-3-yl]methyl}-2,5-diazabicyclo[2.2.2]oct-2-yl)(6-methoxypyridin-2-yl)methanone]: the IC50 on human TASK-1 stood at 72 nM; at human TASK-3 it was 1.8 nM. For `O=C(c1ccccc1F)N1CC2CCC1CN2Cc1c(-c2ccc(Br)cc2)nc2ccccn12` (racemic) [Example 152, (5-{[2-(4-Bromophenyl)imidazo[1,2-a]pyridin-3-yl]methyl}-2,5-diazabicyclo[2.2.2]oct-2-yl)(2-fluorophenyl)methanone], the IC50 on human TASK-1 came out at 2900 nM; at human TASK-3, 75 nM. The corresponding values for `COc1ccc(F)c(C(=O)N2CC3CCC2CN3Cc2c(-c3ccc(Br)cc3)nc3ccccn23)n1` (racemic) [Example 153, (5-{[2-(4-Bromophenyl)imidazo[1,2-a]pyridin-3-yl]methyl}-2,5-diazabicyclo[2.2.2]oct-2-yl)(3-fluoro-6-methoxypyridin-2-yl)methanone] are 1000 nM and 34 nM. The corresponding values for `COc1ccc(Cl)c(C(=O)N2CC3CCC2CN3Cc2c(-c3ccc(Br)cc3)nc3ccccn23)n1` (racemic) [Example 199, (5-{[2-(4-Bromophenyl)imidazo[1,2-a]pyridin-3-yl]methyl}-2,5-diazabicyclo[2.2.2]oct-2-yl)(3-chlor-6-methoxypyridin-2-yl)methanone(racemate)] are 33 nM and 1.8 nM. The corresponding values for `CC(C)(C)OC(=O)N1CC2CCC1CN2Cc1c(-c2ccc(Cl)cc2)nc2ccccn12` (single isomer, unassigned) [Example 15, tert-Butyl 5-{[2-(4-chlorophenyl)imidazo[1,2-a]pyridin-3-yl]methyl}-2,5-diazabicyclo[2.2.2]octane-2-carboxylate] are 397 nM and 82 nM. In the case of `CC(C)(C)OC(=O)N1CC2CCC1CN2Cc1c(-c2ccc(Cl)cc2)nc2ccccn12` (single isomer, unassigned) [Example 16, tert-Butyl 5-{[2-(4-chlorophenyl)imidazo[1,2-a]pyridin-3-yl]methyl}-2,5-diazabicyclo[2.2.2]octane-2-carboxylate], the values for the IC50 at human TASK-1 and at human TASK-3 were 1300 nM and 600 nM, respectively. Consider `O=C(c1ccccc1F)N1CC2CCC1CN2Cc1c(-c2ccc(Cl)cc2)nc2ccccn12` (single isomer, unassigned) [Example 35], for which the IC50 at human TASK-1 turned out to be 350 nM; on human TASK-3, 200 nM. The matching figures for `O=C(c1ccccc1F)N1CC2CCC1CN2Cc1c(-c2ccc(Cl)cc2)nc2ccccn12` (single isomer, unassigned) [Example 36]: 670 nM and 250 nM. The corresponding values for `O=C(C1CCCC1)N1CC2CCC1CN2Cc1c(-c2ccc(Cl)cc2)nc2ccccn12` (single isomer, unassigned) [Example 37] are 350 nM and 63 nM. As to `O=C(C1CCCC1)N1CC2CCC1CN2Cc1c(-c2ccc(Cl)cc2)nc2ccccn12` (single isomer, unassigned) [Example 38], the IC50 is 790 nM on human TASK-1 and 380 nM at human TASK-3. The matching figures for `COc1cccc(C(=O)N2CC3CCC2CN3Cc2c(-c3ccc(Cl)cc3)nc3ccccn23)c1` (single isomer, unassigned) [Example 39]: 640 nM and 370 nM. The matching figures for `COc1cccc(C(=O)N2CC3CCC2CN3Cc2c(-c3ccc(Cl)cc3)nc3ccccn23)c1` (single isomer, unassigned) [Example 40]: 533 nM and 104 nM. The matching figures for `O=C(c1cc(F)ccc1Cl)N1CC2CCC1CN2Cc1c(-c2ccc(Cl)cc2)nc2ccccn12` (single isomer, unassigned) [Example 41]: 76 nM and 3.9 nM.

On to `O=C(C1CCCCC1)N1CC2CCC1CN2Cc1c(-c2ccc(Cl)cc2)nc2ccccn12` (single isomer, unassigned) [Example 42], for which the IC50 on human TASK-1 is 880 nM; on human TASK-3, 17 nM. The matching figures for `O=C(C1CCC1)N1CC2CCC1CN2Cc1c(-c2ccc(Cl)cc2)nc2ccccn12` (single isomer, unassigned) [Example 43]: 320 nM and 8.9 nM.

As to `COc1ccccc1C(=O)N1CC2CCC1CN2Cc1c(-c2ccc(Cl)cc2)nc2ccccn12` (single isomer, unassigned) [Example 44], the 50% inhibitory concentration (IC50) at human TASK-1 was 130 nM; at human TASK-3 it was 3.3 nM. The corresponding values for `COc1ccc(F)cc1C(=O)N1CC2CCC1CN2Cc1c(-c2ccc(Cl)cc2)nc2ccccn12` (single isomer, unassigned) [Example 45] are 340 nM and 13 nM. `Cc1ccccc1C(=O)N1CC2CCC1CN2Cc1c(-c2ccc(Cl)cc2)nc2ccccn12` (single isomer, unassigned) [Example 46]: the values for the IC50 on human TASK-1 and on human TASK-3 were 73 nM and 5 nM, respectively.

In the case of `Cc1ccc(F)cc1C(=O)N1CC2CCC1CN2Cc1c(-c2ccc(Cl)cc2)nc2ccccn12` (single isomer, unassigned) [Example 47], the IC50 turned out to be 70 nM on human TASK-1 and 15 nM at human TASK-3. The matching figures for `O=C(c1cccc(OC(F)(F)F)c1)N1CC2CCC1CN2Cc1c(-c2ccc(Cl)cc2)nc2ccccn12` (single isomer, unassigned) [Example 48]: 390 nM and 17 nM.

For `O=C(c1cccc(Cl)c1)N1CC2CCC1CN2Cc1c(-c2ccc(Cl)cc2)nc2ccccn12` (single isomer, unassigned) [Example 49], the IC50 at human TASK-1 came to 740 nM; at human TASK-3 it was 12 nM.

`O=C(c1ccccn1)N1CC2CCC1CN2Cc1c(-c2ccc(Cl)cc2)nc2ccccn12` (single isomer, unassigned) [Example 51]: the IC50 on human TASK-1 was 290 nM; at human TASK-3, 34 nM. Turning to `Cn1ccnc1C(=O)N1CC2CCC1CN2Cc1c(-c2ccc(Cl)cc2)nc2ccccn12` (single isomer, unassigned) [Example 52], the IC50 on human TASK-1 stood at 170 nM; at human TASK-3, 10 nM. The corresponding values for `Cc1cccc(C(=O)N2CC3CCC2CN3Cc2c(-c3ccc(Cl)cc3)nc3ccccn23)c1` (single isomer, unassigned) [Example 53] are 140 nM and 34 nM.

As to `CCOc1cccc(C(=O)N2CC3CCC2CN3Cc2c(-c3ccc(Cl)cc3)nc3ccccn23)c1` (single isomer, unassigned) [Example 54], the results for the IC50 on human TASK-1 and on human TASK-3 were 470 nM and 76 nM, respectively. On to `O=C(c1ccncc1)N1CC2CCC1CN2Cc1c(-c2ccc(Cl)cc2)nc2ccccn12` (single isomer, unassigned) [Example 55], for which the IC50 turned out to be 2000 nM at human TASK-1 and 320 nM on human TASK-3. As to `CC(C)c1ccc(-c2nc3ccccn3c2CN2CC3CCC2CN3C(=O)c2ccccc2F)cc1` (single isomer, unassigned) [Example 57], the IC50 on human TASK-1 stood at 1400 nM; on human TASK-3, 240 nM. As for `COc1cccc(C(=O)N2CC3CCC2CN3Cc2c(-c3ccc(C(C)C)cc3)nc3ccccn23)n1` (single isomer, unassigned) [Example 60], the half-maximal inhibitory concentration (IC50) at human TASK-3 was 610 nM. Turning to `COc1cccc(C(=O)N2CC3CCC2CN3Cc2c(-c3ccc(C(C)C)cc3)nc3ccccn23)n1` (single isomer, unassigned) [Example 61], the concentration for half-maximal inhibition (IC50) worked out at 680 nM at human TASK-1 and 87 nM on human TASK-3. The matching figures for `CC(C)c1ccc(-c2nc3ccccn3c2CN2CC3CCC2CN3C(=O)C2CCCC2)cc1` (single isomer, unassigned) [Example 62]: 2800 nM and 760 nM.

As to `CC(C)c1ccc(-c2nc3ccccn3c2CN2CC3CCC2CN3C(=O)C2CCCC2)cc1` (single isomer, unassigned) [Example 63], the IC50 on human TASK-1 was found to be 490 nM; at human TASK-3 it was 140 nM.

For the compound `COc1ccc(F)c(C(=O)N2CC3CCC2CN3Cc2c(-c3ccc(Cl)cn3)nc3ccccn23)n1` (single isomer, unassigned) [Example 66], the IC50 was found to be 1100 nM on human TASK-1 and 110 nM at human TASK-3. The corresponding values for `COc1ccc(Cl)c(C(=O)N2CC3CCC2CN3Cc2c(-c3ccc(Cl)cn3)nc3ccccn23)n1` (single isomer, unassigned) [Example 67] are 990 nM and 220 nM. As for `Cc1cccc(Cl)c1NC(=O)N1C2CCC1CN(Cc1c(-c3ccc(Cl)cc3)nc3ccccn13)C2` [Example 165, N-(2-Chloro-6-methylphenyl)-3-{[2-(4-chlorophenyl)imidazo[1,2-a]pyridin-3-yl]methyl}-3,8-diazabicyclo[3.2.1]octane-8-carboxamide], the IC50 on human TASK-1 amounted to 25 nM. Same read-out and setting: the same measure for `CCOC(=O)N1C2CCC1CN(Cc1c(-c3ccc(Cl)cc3)nc3ccccn13)C2` [Example 185, Ethyl 3-{[2-(4-chlorophenyl)imidazo[1,2-a]pyridin-3-yl]methyl}-3,8-diazabicyclo[3.2.1]octane-8-carboxylate]: 120 nM.
